The test system of assay [1] is TNBS induced IBD in Balb/c mice. Briefly: TNBS induced inflammatory bowel disease (IBD) model. The format is in vivo. How it is done:
Female Balb/c mice (8 weeks old) were obtained from Beijing Vital River Laboratory Animal Co. Ltd. Animals, and then housed and handled in a temperature-controlled environment with a 12-h light/12-h dark cycle. A total of 30 mice were assigned to 3 groups by randomization based on body weight.
On Day 0, the mice weighing 18-20 g were anesthetized with […] (Easycheck, M2910), and then further intra-rectally injected 100 μL 1.5% TNBS solution (final concentration in 50% ethanol) in the vehicle group and treatment groups. For the Sham group, the mice were intra-rectally injected with 50% ethanol at the same volume.
Mice in Group 1 and Group 2 were treated with vehicle for 8 days (po, qd, from day −1 to day 6). Mice in Group 3 were treated with 90 mg/kg Cpd. 73 for 8 days (po, qd, from day −1 to day 6). The protocols and procedures involving the care and use of animals were approved by the Institutional Animal Care and Use Committee (IACUC) at WuxiApptec (Shanghai, China).
Clinical signs of IBD were assessed every day based on the score of disease activity index (DAI) which was evaluated from three parameters using a scoring system from 0 to 4: stool consistency (0, normal stool; 1, soft but still formed stool; 2, soft and not formed stool; 3, very soft and wet stool; 4, watery diarrhea), bleeding score (0, negative hemoccult; 1, weak positive hemoccult; 2, positive hemoccult; 3, blood trace in stool visible; 4, gross rectal bleeding) and body weight loss (0, no body weight loos; 1, 1-5% body weight loss; 2, 6-10% body weight loss; 3, 11-20% body weight loss; 4, >20% body weight loss).
At the end of experiment (day 7), the animals were euthanized, dissected and the entire colon was quickly removed and gently cleared of feces.
At the end of experiment, the animals were euthanized, and blood was collected immediately by the heart punctures and used for whole blood cell analysis.
At the end of the study (day 7), the cell suspensions from sham control, model control and Cpd. 73 treatment groups were obtained from mesenteric lymph nodes (MLN). Cells were stained with the following florescence-labelled antibodies: APC-Cy7-conjugated anti-mouse CD45, BV510-conjugated anti-mouse CD3e, AF700-conjugated anti-mouse CD8a, BUV395-conjugated anti-mouse CD4, BV421-conjugated anti-mouse CD25, FITC-conjugated anti-mouse Foxp3, BV650-conjugated anti-mouse IFN-γ, APC-conjugated anti-mouse B220, BV395-conjugated anti-mouse CD3e, BV605-conjugated anti-mouse CD11b, BB700-conjugated anti-mouse CD11c, AF488-conjugated anti-mouse MHCII, BV421-conjugated anti-mouse NK1.1, BV510-conjugated anti-mouse Ly6G, PE-Cy7-conjugated anti-mouse CD107a and PE-CF594-conjugated anti-mouse F4/80. All cells were primarily gated on single and live lymphocytes based on forward scatter (FCS), side scatter (SSC) and live/dead staining buffer. Samples were analyzed on a flow cytometer (BD LSRFortessa) to count the percentage of each subtype of lymphocytes.
At the end of the study (day 7), all the animals were sacrificed by CO2. The colon was Swiss-rolled and fixed with neutralized PFA followed by H&E staining. After that, the pathologists from WuXi clinical pathological analysis platform, who were blinded to animal ID, reviewed the H&E staining and scored. The pathological scoring standards were as follows: crypt architecture (normal, 0; severe crypt distortion with loss of entire crypts, 3), degree of inflammatory cell infiltration (normal, 0; dense inflammatory infiltrate, 3), muscle thickening (normal, 0; marked muscle thickening present, 3), goblet cell depletion (absent, 0; present, 1) and crypt abscess (absent, 0; present, 1).
The fixed colon was stained with Masson's Trichrome to assess the collagen fibers in colon tissue. The Masson's Trichrome staining procedures was followed the standard protocol. After that, the pathological doctors from WuXi clinical pathological analysis platform reviewed the whole slices and scored blinded with animal information. […]

Assay [2] deals with H3K27me3 in TER119+ erythroid lineage cells. The experiment in a line: H3K27me3 level in TER119+ erythroid lineage cells from bone marrow (FACS, H3K27me3/H3 ratio). It is filed as in vivo, CD-1 mice. How it is done: Female CD-1 mice (8 weeks old) were housed and handled in a temperature-controlled environment with a 12-h light/12-h dark cycle. A total of 25 mice were assigned to 5 groups by randomization based on body weight, followed by 5 days of treatment with vehicle (po, qd), 3 mg/kg Cpd. 73 (po, qd), 10 mg/kg Cpd. 73 (po, qd), 30 mg/kg Cpd. 73 (po, qd), or 90 mg/kg Cpd. 73 (po, qd). The protocols and procedures involving the care and use of animals were approved by the Institutional Animal Care and Use Committee (IACUC) of WuXiAppTec (Shanghai) Co., Ltd. (Shanghai, China).
Mice were euthanatized 4 hours post the last dose. Whole blood and bone marrow were collected. Bone marrow cells were flushed from femur and tibia with IMDM+/+ (IMDM, 10% heat inactivated FBS, 100 U/mL penicillin and 100 μg/mL streptomycin). Aggregate was removed by passing through 40 μm cell strainer. 5 mL DPBS was used to pellet the cells after centrifugation, and the cell number was counted. Whole blood was added with 1×RBC lysis buffer remove RBC (whole blood: 1×RBC lysis buffer=1:9), and mononuclear cells were collected by centrifugation. The cells were then washed with 1×DPBS for once and resuspended in 3 ml DPBS after centrifugation followed by cell number counting.
Bone marrow cells were stained with FITC-conjugated anti-mouse TER-119 antibody (Thermo Fisher, 11-5921-82) and eFluor 506-conjugated anti-mouse CD45 antibody (Thermo Fisher, 69-0451-82). TER-119+ cells were erythroid lineage cells. PBMC were stained with eFlour 450-conjugated anti-mouse CD11b antibody (Invitrogen, 48-0112-82), PerCP-eFluor710-conjugated anti-mouse CD3 antibody (Invitrogen, 46-0032-82), eFluor 506-conjugated anti-mouse CD45 antibody (Thermo Fisher, 69-0451-82). CD45+CD3−CD11b+ cells were monocytes from PBMC.
After washing, centrifugation and fixation, the cells were permeabilized and further incubated with antibodies of H3K27m3 (Tri-Methyl-Histone H3 (Lys27) (C36B11) Rabbit mAb (PE Conjugate), CST, 40724S) and H3 (Histone H3 (D1H2) XP® Rabbit mAb (Alexa Fluor®647 Conjugate), CST, 12230S), followed by FACS analysis to quantify the mean fluorescence intensity of target cells. The ratio between the fluorescence intensity of H3K27me3 and H3 were used to reflect the level of H3K27me3 in the cells.

Setting [3] is: 90 mg/kg po qd day −1 to day 6, end of experiment, vs vehicle.
[4] abbreviates: 90 mg/kg po qd day −1 to day 6, vs vehicle.
Setting [5] is: 90 mg/kg, day 7, flow cytometry, vs vehicle control.

`CC(C)N1Cc2cc(C(F)(F)F)ncc2-c2cnc(NCc3c(F)ccc4c3CCO4)n3cnc(c23)C1=O` [Cpd. 73, 12-(((5-fluoro-2,3-dihydrobenzofuran-4-yl)methyl)amino)-4-isopropyl-7-(trifluoromethyl)-4,5-dihydro-3H-2,4,8,11,12a-pentaazabenzo[4,5]cycloocta[1,2,3-cd]inden-3-one] displayed a colon length in assay [1] (90 mg/kg po qd day −1 to day 6, day 7, vehicle 6.26±0.17 cm) of 8.79±0.22 cm. Further, in assay [1] (90 mg/kg po qd day −1 to day 6, day 7, vehicle 10.33±0.35), the “pathological score (H&E, colon)” value was found to be 1.70±0.37. The compound also registered a colon weight in assay [1] (90 mg/kg po qd day −1 to day 6, day 7, vehicle 336.8±26.68 mg) of 213.8 ± 6.08 mg. Besides, the “anemia (red blood cells and hemoglobin in peripheral blood)” value in assay [1] (90 mg/kg po qd day −1 to day 6, end of experiment) is “improved”. Also, in assay [1] (setting [3]), the “cell number of monocytes in peripheral blood” value is given as “significantly reduced” and the “cell number of neutrophils in peripheral blood” value is recorded as “significantly reduced”. In addition, in assay [1] (90 mg/kg po qd day −1 to day 6, vehicle 4.33±0.30), the “fibrosis score (Masson's Trichrome, colon)” value amounted to 1.10±0.17. In addition, in assay [1] (setting [4]), the DAI score entry is on record as “significantly reducing” and the body weight loss entry is listed as “improving”. In assay [1] (setting [5]), the “percentage of IFN-γ secreting CD4+ T cells (Th1 cells) in MLN” value is reported as “significantly reduced”, the “percentage of NK cells in MLN” value is reported as “significantly reduced”, the “percentage of activated NK cells in MLN” value is on record as “significantly reduced” and the “percentage of macrophages in MLN” value is given as “significantly reduced”. The “percentage of neutrophils in mesenteric lymph nodes (MLN)” value in assay [1] (setting [5]) is “significantly reduced”. Moreover, the “decrease in H3K27me3 level” value in assay [2] (3 mg/kg po qd×5 days, vs vehicle) was 21.2%. In assay [2] (10 mg/kg po qd×5 days, vs vehicle), the “decrease in H3K27me3 level” value is on record as 18.7%. Further, the “decrease in H3K27me3 level” value in assay [2] (30 mg/kg po qd×5 days, vs vehicle) was 21.6%. In assay [2] (90 mg/kg po qd×5 days, p<0.01 vs vehicle), the “decrease in H3K27me3 level” value stood at 39.7%.

For the origin of these results see US20240366611A1, “METHODS OF TREATING A DISEASE OR DISORDER” (Ascentage Pharma (Suzhou) Co., Ltd., priority 2021, published 2024).
